# Results reported in article doi:10.1101/2025.10.30.685675v2 (biorxiv, 2026).
# Biological target: T1, HsDLH (Homo sapiens, UniProt Q96DG6)
# T1 construct: gene CMBL; N-terminal His6-Twin-Strep-SUMO tag kept, E. coli BL21(DE3), Ni-NTA
# T1 sequence (Q96DG6 1-245): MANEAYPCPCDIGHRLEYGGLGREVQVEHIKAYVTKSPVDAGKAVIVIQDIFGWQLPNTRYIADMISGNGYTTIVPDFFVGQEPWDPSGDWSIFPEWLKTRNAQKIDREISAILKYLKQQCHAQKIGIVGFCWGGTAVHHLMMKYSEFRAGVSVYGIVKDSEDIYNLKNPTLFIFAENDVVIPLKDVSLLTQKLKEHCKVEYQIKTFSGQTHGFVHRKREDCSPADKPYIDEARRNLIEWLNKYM
# Format: biochemical
smiles,measurement,value
CCOP(=O)(OCC)Oc1ccc2c(c1)Oc1cc(OP(=O)(OCC)OCC)ccc1C21OC(=O)c2ccccc21 [FDDEP],KM,displays very weak activity towards the fluorogenic phosphotriester FDDEP
